Source: article PMC7463460, “Structure and Antiparasitic Activity Relationship of Alkylphosphocholine Analogues against Leishmania donovani” (Microorganisms, 2020)
“And” between values parts separate entries of the source, which are not always exact repeats. Equal entries are not always repeated.

Tests used:
Type in all cases: cell-based, Leishmania donovani
[1] = system: L. donovani 275/18 Milt-Sb-resistant promastigotes; experiment: Promastigote luciferase assay, Milt-resistant 275/18; conditions: for IC50: Leishmania donovani, read-out: Mean IC50 Value Promastigotes
Excerpt: (§1) L. donovani cloned strains with different Sb susceptibility backgrounds were derived from isolates obtained from VL patients at the B.P. Koirala Institute of Health Sciences, Dharan, Nepal: MHOM/NP/02/BPK282/0cl4 (Sb sensitive, Sb-S). MHOM/NP/02/BPK087/0cl11 (Sb intermediate, Sb-I) and MHOM/NP/02/BPK275/0cl18 (Sb resistance, Sb-R [13]). In addition, Milt-resistant parasites raised against these three Sb sensitivity backgrounds and the Sb-sensitive strain (MHOM/ET/67:LV82) was also used in studies. Luciferase expressing promastigotes for the LV82 and Nepalese strains were prepared using previously published methods and the integrative construct (a gift from Dr D.F. Smith), designated pGL1313, contained pSSU-int fragments to facilitate integration into the ribosomal RNA locus of Leishmania.
The anti-leishmanial activity of APC against L. donovani luciferase-expressing promastigotes was determined by adding of the appropriate 100 µL parasite line (10^6 cells/mL) to the wells of a 96-well plate and adding 100 µL medium alone (controls) or 100 µL of APC compound (0.01 µg/mL–6.25 µg/mL, n = 3/treatment). […].
(§2) Luciferin solution (1 µg/mL in 20 µL medium without FCS) was added to the appropriate wells of the 96-well plate at the end of the experiment and the amount of light emitted/well was measured using a luminometer (Biotek Synergy HT, relative light units) using a wavelength/bandwidth of 440/40 nm, or IVIS® imaging (Spectrum Living Image system®, total flux, photons/sec).
(§3) The effect of drug treatment on parasite survival was determined by calculating the mean suppression in the light emitted from the drug-treated experimental sample compared to the mean control value and used to calculate the IC50 using Grafit® software (version 5.0, Erithacus Software, East Grinstead, West Sussex, UK). The effect of drug alone on the viability of uninfected macrophages was determined using the same experimental protocol above, but cell viability was determined using an alamar blue colorimetric assay. At the end of the incubation period, cells’ 10 µL resazurin solution (0.02% w/v) was added to control and drug treated cells and the absorbance of samples was read at 575 and 595 nm. The effect of drug treatment on cell survival, which correlates with the magnitude of dye reduction, was expressed as percentage viability (or alamar blue reduction) and determined using the formula provided in the manufacturer’s protocol % alamar blue reduction=(εoxλ)(Aλ1)−(εoxλ1)(Aλ2)/(εredλ1)(A^′λ2)−(εredλ2)(A^′λ1)x100
(§4) Cross resistance (CRI50) indexes were determined as Cross selectivity indices (CRI)=mean IC50 value for the relevant drug−resistant strain i.e., Sb−I or Sb−R / mean IC50 value drug−sensitive strain Sb−S

[2] = system: L. donovani 087/11 Milt-Sb-intermediate intracellular amastigotes; experiment: Intracellular amastigote assay, Milt-resistant 087/11; conditions: for IC50: Leishmania donovani, read-out: Mean IC50 Value Amastigotes; for Cross-Resistance Index (CRI50) Amast / Selectivity Index (SI50): strain 087/11, Milt-Sb-intermediate; for Selectivity Index (SI50): macrophage CC50 / amastigote IC50
Excerpt: as §1
(§5) In the macrophage studies, the method described in previous studies was used as follows. Briefly, bone-marrow-derived BALB/c macrophages (1–2 × 10^5) in 100 µL complete RPMI 1640 medium were added to the wells of a 96 well plate and left to adhere for 24 h at 37 °C, 5% CO₂/95% air. The medium was removed and 100 µL of the appropriate L. donovani luciferase-expressing promastigotes line (parasite: host cell ratio 1:10, 1:20 or 1:40) was added to each well, the ratio used reflected the infectivity of the strain and ensured that control data gave a bioluminescent signal within the same range. […] The variability in infectivity complicates strain to strain comparisons, but we decided to focus on achieving good infection levels in controls so that the effect of drug treatment could be determined. It is possible that intracellular macrophage parasites could have been at different developmental stages at 24 h post-infection. […] Therefore, we assumed that the effect of compounds on the amastigote stage rather than the promastigotes stage was determined in in vitro macrophage studies.
(§6) The plate was incubated for a further 24 h, the medium removed, and each well washed with PBS to eliminate non-internalized parasites, which were monitored microscopically. When the wells were devoid of external parasites, 100 µL of the medium alone (control) or appropriate APC compound was then added (0.01–0.197 µg/mL, n = 3/treatment). […]. All plates were incubated for 72 h at 37 °C, 5% CO₂/95% air. Wells with macrophage and with no drug or promastigotes added were used in control experiments.
as §2
as §3, with “reduction=(εoxλ)(Aλ1)−(εoxλ1)(Aλ2)/(εredλ1)(A^′λ2)−(εredλ2)(A^′λ1)x100 […]” for “reduction=(εoxλ)(Aλ1)−(εoxλ1)(Aλ2)/(εredλ1)(A^′λ2)−(εredλ2)(A^′λ1)x100”

[3] = system: L. donovani 087/11 (Sb-intermediate) promastigotes; experiment: microbe, parasite or virus in culture; conditions: for IC50: Leishmania donovani, read-out: Mean IC50 Promastigotes; for Promast: Amast Ratio: strain 087/11, Sb-intermediate; for Cross-Resistance Index (CRI50) Promast: strain 087/11, Sb-intermediate vs Sb-S
Excerpt: as §1, §2
as §3, with “At the end of the incubation period, cells’ 10 µL resazurin solution (0.02% w/v) was added to control and drug treated cells and the absorbance of samples was read at 575 and 595 nm.” left out
as §4

[4] = system: L. donovani 275/18 (Sb-resistant) intracellular amastigotes; experiment: Intracellular amastigote assay, Sb-resistant strain 275/18; conditions: for IC50: Leishmania donovani, read-out: Mean IC50 Amastigotes; for Cross-Resistance Index (CRI50) Amast: strain 275/18, Sb-resistant vs Sb-S; for Selectivity Index (SI50): strain 275/18, Sb-resistant, macrophage CC50 / amastigote IC50
Excerpt: as §1, §5, §6, §2
as §3, with “reduction=(εoxλ)(Aλ1)−(εoxλ1)(Aλ2)/(εredλ1)(A^′λ2)−(εredλ2)(A^′λ1)x100 […]” for “reduction=(εoxλ)(Aλ1)−(εoxλ1)(Aλ2)/(εredλ1)(A^′λ2)−(εredλ2)(A^′λ1)x100”

[5] = system: L. donovani 282/4 Milt-Sb-sensitive intracellular amastigotes; experiment: Intracellular amastigote assay, Milt-resistant 282/4; conditions: for IC50: Leishmania donovani, read-out: Mean IC50 Value Amastigotes; for Selectivity Index (SI50): strain 282/4, Milt-Sb-sensitive, macrophage CC50 / amastigote IC50
Excerpt: as §1, §5
The plate was incubated for a further 24 h, the medium removed, and each well washed with PBS to eliminate non-internalized parasites, which were monitored microscopically. […]
as §2, §3

[6] = system: L. donovani 087/11 (Sb-intermediate) intracellular amastigotes; experiment: Intracellular amastigote assay, Sb-intermediate strain 087/11; conditions: for IC50: Leishmania donovani, read-out: Mean IC50 Amastigotes; for Cross-Resistance Index (CRI50) Amast: strain 087/11, Sb-intermediate vs Sb-S; for Selectivity Index (SI50): strain 087/11, Sb-intermediate, macrophage CC50 / amastigote IC50
Excerpt: as §1, §5, §6, §2
as §3, with “reduction=(εoxλ)(Aλ1)−(εoxλ1)(Aλ2)/(εredλ1)(A^′λ2)−(εredλ2)(A^′λ1)x100 […]” for “reduction=(εoxλ)(Aλ1)−(εoxλ1)(Aλ2)/(εredλ1)(A^′λ2)−(εredλ2)(A^′λ1)x100”

[7] = strain 275/18, Milt-Sb-resistant

| Structure (SMILES) | IC50 [1] | Promast: Amast Ratio [1, 7] | IC50 [2] | Cross-Resistance Index (CRI50) Amast [2] | Selectivity Index (SI50) [2] | IC50 [3] | Promast: Amast Ratio [3] | Cross-Resistance Index (CRI50) Promast [3] | IC50 [4] | Cross-Resistance Index (CRI50) Amast [4] | Selectivity Index (SI50) [4] | IC50 [5] | Selectivity Index (SI50) [5] | IC50 [6] | Cross-Resistance Index (CRI50) Amast [6] | Selectivity Index (SI50) [6] | Cross-Resistance Index (CRI50) Promast [1, 7] |
| --- | --- | --- | --- | --- | --- | --- | --- | --- | --- | --- | --- | --- | --- | --- | --- | --- | --- |
| CCCCCCCCCCCCOP(=O)([O-])OCC[N+](C)(C)C [APC12, dodecylphosphocholine] | > 125 µg/mL and > 356 µM | >28.09 | 6.17 µg/mL and 17.6 µM | 77.13 | 5.73 | 0.42 µg/mL and 1.19 µM | 2.11 | 0.76 | 0.23 µg/mL and 650 nM | 0.88 | 153.83 | 0.08 µg/mL and 230 nM | 442.25 | 0.2 µg/mL and 570 nM | 0.77 | 176.90 | – |
| CCCCCCCCCCCCCCOP(=O)([O-])OCC[N+](C)(C)C [APC14, tetradecylphosphocholine] | > 125 µg/mL and > 329 µM | – | 10 µg/mL and 26.4 µM | > 5.95 | 4.08 | 0.21 µg/mL and 550 nM | 1.05 | 0.48 | 0.28 µg/mL and 740 nM | 2.33 | 146.04 | > 1.73 µg/mL and > 4.56 µM | >23.64 | 0.19 µg/mL and 500 nM | 1.58 | 215.21 | 1.00 |
| CCCCCCCCCCCCCCCCOP(=O)([O-])OCC[N+](C)(C)C [APC16, hexadecylphosphocholine, reference compound] | > 125 µg/mL and > 307 µM | 2.04 | 12.7 µg/mL and 31 µM | – | – | – | 5.15 | – | 0.51 µg/mL and 1.25 µM | – | – | > 1.61 µg/mL and > 3.95 µM | – | 0.29 µg/mL and 710 nM | – | – | – |
